Like-named read-outs stand apart in the source and are kept apart here.
Legend:
[1] = target: T1, Carbonic anhydrase II (bovine) (Bos taurus, UniProt P00921); test: SPR binding of CA to immobilised benzene sulfonamide ligands
T1 construct: purchased Sigma (St. Louis, Mo.)

[2] = tested on: mixture of fibrinogen, myoglobin, lysozyme, and RNase; test: SPR nonspecific adsorption from a mixture of proteins; type: binding; settings: mixed SAM presenting 13 and —CONH(CH2CH2O)6H/—CO2H groups
fibrinogen = target: T2, fibrinogen (Bos taurus, UniProt P02672+P02676+P12799); test: SPR adsorption of fibrinogen to SAMs / grafted polymer films; type: binding, bovine; settings: for % ML 30 min / dR/dt on / % ML 3 min: fibrinogen; for % ML 30 min / dR/dt on / % Fib off: single-component SAMs (a) and mixed SAMs (b); for % ML 3 min: single-component SAMs (a, RSH) and mixed SAMs (b, RNH2); for % Fiboff (percent decrease in adsorbed protein during 10 minute PBS wash) / dR/dton fibrinogen (maximum initial rate of adsorption) / % MLfib 3 min / % MLfib 30 min: mixed SAM —CONRR′/—CO2H; for % MLfib 3 min: 1 mg/mL fibrinogen flowed 3 min, relative to —CONH(CH2)10CH3/—CO2H SAM; for % MLfib 30 min: 1 mg/mL fibrinogen flowed 30 min
T2 sequence (P02672 20-615): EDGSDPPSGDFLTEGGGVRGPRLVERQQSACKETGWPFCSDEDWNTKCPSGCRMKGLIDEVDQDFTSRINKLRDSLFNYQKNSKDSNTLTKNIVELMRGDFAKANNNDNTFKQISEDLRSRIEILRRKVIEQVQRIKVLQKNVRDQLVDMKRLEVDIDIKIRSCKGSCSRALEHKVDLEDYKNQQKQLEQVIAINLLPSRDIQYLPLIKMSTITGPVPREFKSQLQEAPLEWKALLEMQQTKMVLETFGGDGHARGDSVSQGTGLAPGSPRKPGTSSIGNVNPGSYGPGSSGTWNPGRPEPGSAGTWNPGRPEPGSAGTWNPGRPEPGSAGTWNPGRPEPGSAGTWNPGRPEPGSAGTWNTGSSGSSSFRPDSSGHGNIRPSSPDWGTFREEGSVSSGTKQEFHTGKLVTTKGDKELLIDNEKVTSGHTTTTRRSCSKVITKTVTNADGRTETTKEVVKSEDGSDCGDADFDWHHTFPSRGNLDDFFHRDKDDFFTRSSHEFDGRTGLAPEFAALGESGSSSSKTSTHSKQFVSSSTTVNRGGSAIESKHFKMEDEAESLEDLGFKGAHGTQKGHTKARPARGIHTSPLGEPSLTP
T2 sequence (P02676 1-468): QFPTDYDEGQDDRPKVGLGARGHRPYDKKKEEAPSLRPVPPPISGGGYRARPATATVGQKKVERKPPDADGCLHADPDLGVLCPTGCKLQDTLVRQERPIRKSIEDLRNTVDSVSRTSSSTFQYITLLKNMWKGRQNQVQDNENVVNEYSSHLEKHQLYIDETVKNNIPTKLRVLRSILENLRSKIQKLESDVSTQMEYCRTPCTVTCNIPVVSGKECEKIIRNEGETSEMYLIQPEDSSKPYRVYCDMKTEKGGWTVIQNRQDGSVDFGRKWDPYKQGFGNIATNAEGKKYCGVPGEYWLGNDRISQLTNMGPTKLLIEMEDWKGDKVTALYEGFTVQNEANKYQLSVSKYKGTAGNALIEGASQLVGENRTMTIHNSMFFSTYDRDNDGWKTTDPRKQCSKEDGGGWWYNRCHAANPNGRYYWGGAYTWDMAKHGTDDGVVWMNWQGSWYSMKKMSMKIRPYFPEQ
T2 sequence (P12799 25-444): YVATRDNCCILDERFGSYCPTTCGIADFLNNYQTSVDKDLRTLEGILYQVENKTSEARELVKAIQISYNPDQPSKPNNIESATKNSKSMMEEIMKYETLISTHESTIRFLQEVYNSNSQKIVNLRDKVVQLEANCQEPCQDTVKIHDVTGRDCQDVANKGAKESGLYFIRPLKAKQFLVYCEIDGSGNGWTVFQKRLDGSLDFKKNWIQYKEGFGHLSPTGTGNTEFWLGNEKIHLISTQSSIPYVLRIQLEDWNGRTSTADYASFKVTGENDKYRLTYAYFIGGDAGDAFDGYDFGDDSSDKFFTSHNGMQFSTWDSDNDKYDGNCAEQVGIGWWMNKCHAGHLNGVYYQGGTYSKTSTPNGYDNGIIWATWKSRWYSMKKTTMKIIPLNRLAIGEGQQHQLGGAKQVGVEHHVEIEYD

lysozyme = lysozyme (Gallus gallus, UniProt P00698); test: SPR adsorption of lysozyme to SAMs / grafted polymer films; type: binding; settings: for % ML 3 min / dR/dt on: lysozyme; for % Lysoff (percent decrease in adsorbed protein during 10 minute PBS wash) / dR/dton lysozyme (maximum initial rate of adsorption) / % MLlys 3 min / % MLlys 30 min: mixed SAM —CONRR′/—CO2H; for % MLlys 3 min: 1 mg/mL lysozyme flowed 3 min; for % MLlys 30 min: 1 mg/mL lysozyme flowed 30 min
Sequence of lysozyme (P00698 19-147): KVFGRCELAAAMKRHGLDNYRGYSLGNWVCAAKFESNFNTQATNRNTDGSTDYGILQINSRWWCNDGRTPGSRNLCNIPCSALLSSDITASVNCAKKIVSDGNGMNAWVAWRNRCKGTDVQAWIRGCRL

[3] = Contact angle of deionized water under cyclooctane; type: physicochemical
CA = CA (Bos taurus, UniProt P00921); settings: soluble ligand; cited from earlier work
Sequence of CA (P00921 whole entry): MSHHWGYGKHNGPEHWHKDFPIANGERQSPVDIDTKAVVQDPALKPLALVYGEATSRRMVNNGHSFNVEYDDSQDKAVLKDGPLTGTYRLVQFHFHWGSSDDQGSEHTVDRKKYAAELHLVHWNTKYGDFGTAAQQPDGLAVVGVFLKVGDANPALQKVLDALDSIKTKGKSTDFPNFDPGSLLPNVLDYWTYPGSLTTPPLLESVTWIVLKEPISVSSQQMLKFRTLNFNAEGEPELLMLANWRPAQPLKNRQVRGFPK

[4] = footnote b (30 minutes), single-component SAMs (a) and mixed SAMs (b)
[5] = single-component SAMs (a) and mixed SAMs (b)

T1 sequence (P00921 whole entry): as above

Structure (SMILES)	% Fiboff (percent decrease in adsorbed protein during 10 minute PBS wash) (fibrinogen) [%]	dR/dton fibrinogen (maximum initial rate of adsorption) (fibrinogen) [RU/sec]	% MLfib 3 min (fibrinogen) [%]	% MLfib 30 min (fibrinogen) [%]	% Lysoff (percent decrease in adsorbed protein during 10 minute PBS wash) (lysozyme) [%]	dR/dton lysozyme (maximum initial rate of adsorption) (lysozyme) [RU/sec]	% MLlys 3 min (lysozyme) [%]	% MLlys 30 min (lysozyme) [%]	θco sessile ([3]; mixed SAM) [degrees]	further results
NCCOCCOCCOCCOCCOCCOCC(=O)NCCCCCCNC(=O)c1ccc(S(N)(=O)=O)cc1 [compound 13, [6-(2-{2-[2-(2-{2-[2-(2-Amino-ethoxy)-ethoxy]-ethoxy}-ethoxy)-ethoxy]-ethoxy}-ethanoylamino)-hexyl]-4-sulfamoyl-benzamide]	–	–	–	–	–	–	–	–	–	reversibility of binding of CA ([1]; CA 5 μM in PBS, mixed SAM presenting 13): > 90%; kon ([1]; SPR, CA 5 μM in PBS, surfaces of this work (entry 4, LPEI entries 6-9)): 13000 M^-1S^-1; koff ([1]; SPR, surfaces of this work (entry 4, LPEI entries 6-9)): 0.0054 S^-1; nonspecific adsorption of protein [2]: did not adsorb a detectable amount of protein
NCCOCCOCCO [Entry 3b, H(OCH2CH2)3NH2, reference compound]	–	–	–	–	–	–	–	–	–	% ML 30 min (fibrinogen): 2%; dR/dt on (fibrinogen): 30 RU/sec; % ML 3 min (fibrinogen): 1%; % Fib off (fibrinogen): 11%; % ML 3 min (lysozyme; [4]): 1%; % ML 3 min (lysozyme; [5]): 1%; dR/dt on (lysozyme; [5]): 85 RU/sec; θco sessile [3]: 50 degrees
O=CN1CCNCC1	10 ± 2	200 ± 50	23 ± 1	39 ± 1	73 ± 15	160 ± 50	8 ± 0.3	12 ± 0.3	38	–
COC(=O)CNC(=O)c1ccc(S(N)(=O)=O)cc1 [benzene sulfonamide 14, H2NSO2C6H4—CONHCH2CO2CH3, reference compound]	–	–	–	–	–	–	–	–	–	competitive inhibition of binding of CA to the mixed SAM presenting 13 ([1]; 1 mM added to the CA-containing solution): completely inhibited; Kd (CA): 63 µM
CC(=O)N1CCNCC1	12 ± 2	120 ± 70	17 ± 1	38 ± 0.2	400 ± 5	440 ± 80	7.8 ± 1	6.5 ± 0.2	45	% ML 30 min (fibrinogen): 38 ±0.2%; dR/dt on (fibrinogen): 120 ±70 RU/sec; % ML 3 min (fibrinogen): 17 ±1%; % Fib off (fibrinogen): 12 ±2%; % ML 3 min (lysozyme; [4]): 7 ±0.2%; % ML 3 min (lysozyme; [5]): 8 ±1%; dR/dt on (lysozyme; [5]): 440 ±80 RU/sec; % Lys off (lysozyme; [5]): 400 ±5%; θco sessile [3]: 45 degrees

More lines, main results first:

% Fiboff (percent decrease in adsorbed protein during 10 minute PBS wash) (fibrinogen) [%]	dR/dton fibrinogen (maximum initial rate of adsorption) (fibrinogen) [RU/sec]	% MLfib 3 min (fibrinogen) [%]	% MLfib 30 min (fibrinogen) [%]	% Lysoff (percent decrease in adsorbed protein during 10 minute PBS wash) (lysozyme) [%]	dR/dton lysozyme (maximum initial rate of adsorption) (lysozyme) [RU/sec]	% MLlys 3 min (lysozyme) [%]	% MLlys 30 min (lysozyme) [%]	θco sessile ([3]; mixed SAM) [degrees]	Structure (SMILES)	further results
14 ± 0.5	350 ± 220	34 ± 2.2	57 ± 0.2	140 ± 2	1400 ± 110	30 ± 0.6	73 ± 5	70	NC(CCCO)(CCCO)CCCO [H2NC(CH2CH2CH2OH)3]	–
15 ± 1	40 ± 10	2.1 ± 0.3	12 ± 3	330 ± 15	170 ± 30	0.5 ± 0.2	3.8 ± 2	46	CNCCN(C)C(C)=O	–
